Reference: ChEMBL document CHEMBL3885881, “DrugMatrix”

Organism: Rattus norvegicus
Type: toxicity, organism-based, Sprague-Dawley
Conditions: in vivo, po, 24 h, route oral GAVAGE, time 1 day, […]; for ABSOLUTE BASOPHIL / ABSOLUTE EOSINOPHIL / ABSOLUTE LYMPHOCYTE / ABSOLUTE MONOCYTE / BASOPHIL / EOSINOPHIL / ERYTHROCYTE COUNT / HEMATOCRIT / HEMOGLOBIN / LEUKOCYTE COUNT / LYMPHOCYTE / MEAN CORPUSCULAR HEMOGLOBIN / MEAN CORPUSCULAR HEMOGLOBIN CONCENTRATION / MEAN CORPUSCULAR VOLUME / MONOCYTE / NEUTROPHIL / PLATELET COUNT: tissue Blood; for ALANINE AMINOTRANSFERASE / ALBUMIN / ALKALINE PHOSPHATASE / ASPARTATE AMINOTRANSFERASE / BLOOD UREA NITROGEN / CARBON DIOXIDE / CHLORIDE / CHOLESTEROL / CREATINE PHOSPHOKINASE / CREATININE / GLUCOSE / LACTATE DEHYDROGENASE / LIPASE / PHOSPHORUS / POTASSIUM / SODIUM / TOTAL BILIRUBIN / TOTAL PROTEIN / URIC ACID: tissue Plasma
[1] = 0 mg/kg, vehicle control, dose level Control

Description: DrugMatrix - Regimen: Single

Which ABSOLUTE BASOPHIL [1] does the source give for `C=CCN` [ALLYLAMINE] here?
The ABSOLUTE BASOPHIL was 46.7 cells/µL.

What about the ABSOLUTE EOSINOPHIL [1] of the same compound?
The ABSOLUTE EOSINOPHIL was 130 cells/µL.

And the ABSOLUTE LYMPHOCYTE [1]?
Its ABSOLUTE LYMPHOCYTE is 8720 cells/µL.

And the ABSOLUTE MONOCYTE [1]?
The ABSOLUTE MONOCYTE was 140 cells/µL.

What about the BASOPHIL [1] of the same compound?
Its BASOPHIL is 0.43%.

And the EOSINOPHIL [1]?
The EOSINOPHIL was 1.33%.

And the “ERYTHROCYTE COUNT” value [1]?
Its value is 6.45 x10E6/uL.

What about the HEMATOCRIT [1] of the same compound?
Its HEMATOCRIT is 42.2%.

And the HEMOGLOBIN [1]?
The HEMOGLOBIN was 13.33 G/DL.

What about the “LEUKOCYTE COUNT” value [1] of the same compound?
The value was 10.59 x10E3/uL.

And the LYMPHOCYTE [1]?
Its LYMPHOCYTE is 82.13%.

And the “MEAN CORPUSCULAR HEMOGLOBIN” value [1]?
Its value is 20.67 pg.

And the “MEAN CORPUSCULAR HEMOGLOBIN CONCENTRATION” value [1]?
The value was 31.6 G/DL.

And the “MEAN CORPUSCULAR VOLUME” value [1]?
The value was 65.4 fL.

And the MONOCYTE [1]?
Its MONOCYTE is 1.37%.

And the NEUTROPHIL [1]?
The NEUTROPHIL was 14.3%.

What about the “PLATELET COUNT” value [1] of the same compound?
The value was 1048.67 x10E3/uL.

What about the “ALANINE AMINOTRANSFERASE” value [1] of the same compound?
The value was 44 u/L.

And the ALBUMIN [1]?
Its ALBUMIN is 3.93 G/DL.

What about the “ALKALINE PHOSPHATASE” value [1] of the same compound?
Its value is 551.33 u/L.

What about the “ASPARTATE AMINOTRANSFERASE” value [1] of the same compound?
Its value is 97 u/L.

And the “BLOOD UREA NITROGEN” value [1]?
Its value is 13.5 mg/dL.

What about the “CARBON DIOXIDE” value [1] of the same compound?
Its value is 37.33 mmol/L.

What about the CHLORIDE [1] of the same compound?
Its CHLORIDE is 102.33 MEQ/L.

What about the CHOLESTEROL [1] of the same compound?
The CHOLESTEROL was 83 mg/dL.

What about the “CREATINE PHOSPHOKINASE” value [1] of the same compound?
Its value is 365.33 u/L.

What about the CREATININE [1] of the same compound?
The CREATININE was 0.4 mg/dL.

And the GLUCOSE [1]?
The GLUCOSE was 189 mg/dL.

And the “LACTATE DEHYDROGENASE” value [1]?
The value was 170.33 u/L.

What about the LIPASE [1] of the same compound?
The LIPASE was 10.67 u/L.

What about the PHOSPHORUS [1] of the same compound?
The PHOSPHORUS was 11.53 mg/dL.

And the POTASSIUM [1]?
Its POTASSIUM is 5.63 MEQ/L.

And the SODIUM [1]?
The SODIUM was 144.33 MEQ/L.

And the “TOTAL BILIRUBIN” value [1]?
The value was 0.4 mg/dL.

And the “TOTAL PROTEIN” value [1]?
The value was 6.27 G/DL.

What about the “URIC ACID” value [1] of the same compound?
Its value is 0.87 mg/dL.

And the ABSOLUTE BASOPHIL (40 mg/kg, dose level Low)?
Its ABSOLUTE BASOPHIL is 26.7 cells/µL.

What about the ABSOLUTE EOSINOPHIL (40 mg/kg, dose level Low) of the same compound?
Its ABSOLUTE EOSINOPHIL is 160 cells/µL.

And the ABSOLUTE LYMPHOCYTE (40 mg/kg, dose level Low)?
Its ABSOLUTE LYMPHOCYTE is 6420 cells/µL.

What about the ABSOLUTE MONOCYTE (40 mg/kg, dose level Low) of the same compound?
The ABSOLUTE MONOCYTE was 190 cells/µL.

And the BASOPHIL (40 mg/kg, dose level Low)?
The BASOPHIL was 0.3%.

What about the EOSINOPHIL (40 mg/kg, dose level Low) of the same compound?
Its EOSINOPHIL is 1.9%.

What about the “ERYTHROCYTE COUNT” value (40 mg/kg, dose level Low) of the same compound?
Its value is 7.01 x10E6/uL.

And the HEMATOCRIT (40 mg/kg, dose level Low)?
The HEMATOCRIT was 45.2%.

What about the HEMOGLOBIN (40 mg/kg, dose level Low) of the same compound?
Its HEMOGLOBIN is 14.3 G/DL.

What about the “LEUKOCYTE COUNT” value (40 mg/kg, dose level Low) of the same compound?
Its value is 8.6 x10E3/uL.

And the LYMPHOCYTE (40 mg/kg, dose level Low)?
The LYMPHOCYTE was 74.17%.

What about the “MEAN CORPUSCULAR HEMOGLOBIN” value (40 mg/kg, dose level Low) of the same compound?
Its value is 20.43 pg.

What about the “MEAN CORPUSCULAR HEMOGLOBIN CONCENTRATION” value (40 mg/kg, dose level Low) of the same compound?
The value was 31.67 G/DL.

What about the “MEAN CORPUSCULAR VOLUME” value (40 mg/kg, dose level Low) of the same compound?
Its value is 64.6 fL.

And the MONOCYTE (40 mg/kg, dose level Low)?
The MONOCYTE was 2.23%.

What about the NEUTROPHIL (40 mg/kg, dose level Low) of the same compound?
The NEUTROPHIL was 20.97%.

And the “PLATELET COUNT” value (40 mg/kg, dose level Low)?
Its value is 1314 x10E3/uL.

And the “ALANINE AMINOTRANSFERASE” value (40 mg/kg, dose level Low)?
The value was 38 u/L.

What about the ALBUMIN (40 mg/kg, dose level Low) of the same compound?
Its ALBUMIN is 3.9 G/DL.

What about the “ALKALINE PHOSPHATASE” value (40 mg/kg, dose level Low) of the same compound?
Its value is 499 u/L.

And the “ASPARTATE AMINOTRANSFERASE” value (40 mg/kg, dose level Low)?
Its value is 72.33 u/L.

What about the “BLOOD UREA NITROGEN” value (40 mg/kg, dose level Low) of the same compound?
Its value is 10 mg/dL.

And the “CARBON DIOXIDE” value (40 mg/kg, dose level Low)?
The value was 38.67 mmol/L.

What about the CHLORIDE (40 mg/kg, dose level Low) of the same compound?
The CHLORIDE was 104 MEQ/L.

What about the CHOLESTEROL (40 mg/kg, dose level Low) of the same compound?
Its CHOLESTEROL is 72.67 mg/dL.

And the “CREATINE PHOSPHOKINASE” value (40 mg/kg, dose level Low)?
The value was 242.67 u/L.

And the CREATININE (40 mg/kg, dose level Low)?
The CREATININE was 0.47 mg/dL.

What about the GLUCOSE (40 mg/kg, dose level Low) of the same compound?
The GLUCOSE was 171.33 mg/dL.

What about the “LACTATE DEHYDROGENASE” value (40 mg/kg, dose level Low) of the same compound?
Its value is 92.33 u/L.

And the LIPASE (40 mg/kg, dose level Low)?
Its LIPASE is 15.33 u/L.

And the PHOSPHORUS (40 mg/kg, dose level Low)?
The PHOSPHORUS was 11.83 mg/dL.

What about the POTASSIUM (40 mg/kg, dose level Low) of the same compound?
The POTASSIUM was 5.73 MEQ/L.

What about the SODIUM (40 mg/kg, dose level Low) of the same compound?
The SODIUM was 145 MEQ/L.

What about the “TOTAL BILIRUBIN” value (40 mg/kg, dose level Low) of the same compound?
The value was 0.3 mg/dL.

What about the “TOTAL PROTEIN” value (40 mg/kg, dose level Low) of the same compound?
Its value is 6.27 G/DL.

And the “URIC ACID” value (40 mg/kg, dose level Low)?
Its value is 1.3 mg/dL.
